Patent publication EP4721744A1, “PHARMACEUTICAL COMPOSITION COMPRISING CEPHALOSPORIN ANTIBACTERIAL COMPOUND” (Jiangsu Hengrui Pharmaceuticals Co., Ltd., priority 2023, dated 2024)

How the values were obtained:
[1] = Solubility test in different solvent systems; type: physicochemical
Method: Different solvent systems were prepared to test the solubility of the compound as shown in formula (I). Table 1 Solubility test

[2] = bulk compound; needs to be stored at or below -60°C; cited from earlier work
[3] = Purified water + 1 M NaOH solution for pH adjustment, 4.9 ml, charging amount 500.4 mg
[4] = Purified water, 250 mL, charging amount 20.01 mg

Dissolution Status ([1]; Hydrochloric acid (pH 1.0), 200 mL, charging amount 19.99 mg): Incomplete dissolution
Dissolution Status [1, 3]: Complete dissolution
Solution pH after complete dissolution [1, 3]: 5.08
Dissolution Status ([1]; Purified water, 20 mL, charging amount 20.01 mg): Incomplete dissolution
Dissolution Status [1, 4]: Complete dissolution
Solution pH after complete dissolution [1, 4]: 3.6
solubility ([1]; Purified water, 250 mL, solution pH 3.6): < 1 mg/mL
solubility ([1]; purified water adjusted with 1 M NaOH solution, aqueous buffer, Purified water + 1 M NaOH solution for pH adjustment, 4.9 ml, solution pH 5.08): ≥ 100 mg/mL
SMILES: CC(C)(O/N=C(\C(=O)N[C@@H]1C(=O)N2C(C(=O)[O-])=C(C[N+]3(CCCN(CCCNC(=O)c4ccc(O)c(O)c4Cl)C(=O)c4ccc(O)c(O)c4Cl)CCCC3)CS[C@H]12)c1csc(N)n1)C(=O)O [compound as shown in formula (I)]
stability [2]: extremely poor stability
